Measured values: patent publication US20240360146A1, “BRUTON'S TYROSINE KINASE AND MUTANT DEGRADER, COMPOSITION AND APPLICATION THEREOF” (HANGZHOU HEALZEN THERAPEUTICS CO., LTD., priority 2021, published 2024)

Target: T1, BTK (Homo sapiens, UniProt Q06187)
T1 construct: endogenous in cells; host or cells: Mino cells
Assay: BTK degradation activity test in Mino cells
Format: cell-based
Conditions: 16 h incubation, Western blot or Elisa
How it was run: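 Mino cells treated with a concentration series of compound for 16 h, then lysed; total protein by BCA. BTK quantified by Western blot or ELISA, degradation rate calculated against blank control, and DC50 fitted from the degradation curve.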

T1 sequence (Q06187 whole entry): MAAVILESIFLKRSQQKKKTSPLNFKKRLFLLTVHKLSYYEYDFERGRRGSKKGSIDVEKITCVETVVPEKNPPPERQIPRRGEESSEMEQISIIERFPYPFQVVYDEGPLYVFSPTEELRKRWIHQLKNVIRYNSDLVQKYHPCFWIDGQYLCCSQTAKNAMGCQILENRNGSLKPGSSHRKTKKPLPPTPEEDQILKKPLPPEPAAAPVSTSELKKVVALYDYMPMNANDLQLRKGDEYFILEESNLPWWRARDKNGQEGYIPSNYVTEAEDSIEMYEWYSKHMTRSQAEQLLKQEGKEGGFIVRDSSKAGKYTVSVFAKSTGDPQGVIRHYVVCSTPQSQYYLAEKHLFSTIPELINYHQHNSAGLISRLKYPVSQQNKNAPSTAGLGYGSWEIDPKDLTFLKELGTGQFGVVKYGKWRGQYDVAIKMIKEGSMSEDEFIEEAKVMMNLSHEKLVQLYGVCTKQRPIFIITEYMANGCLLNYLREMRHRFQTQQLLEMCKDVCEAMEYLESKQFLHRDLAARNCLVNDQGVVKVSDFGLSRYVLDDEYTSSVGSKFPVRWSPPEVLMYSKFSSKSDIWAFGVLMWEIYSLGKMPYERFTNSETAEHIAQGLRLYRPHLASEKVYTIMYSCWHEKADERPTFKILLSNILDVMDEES

| Compound | DC50 |
| --- | --- |
| CC1(c2ccc(Nc3nc(N4CCCC(N5CCN(C6CCCCC6)C5=O)C4)cnc3C(N)=O)cc2)CCN(C2CN(c3ccc4c(c3)C(=O)N(C3CCC(=O)NC3=O)C4=O)C2)CC1 (stereo not shown) [Compound 003, 5-(3-(3-cyclohexyl-2-oxoimidazolin-1-yl)piperidin-1-yl)-3-((4-(1-(1-(2-(2,6-dioxopiperidin-3-yl)-1,3-dioxoisoindol-5-yl)azetidin-3-yl)-4-methylpiperidin-4-yl)phenyl)amino)pyrazin-2-carboxamide] | < 1 nM |
| NC(=O)c1ncc(N2CCCC(N3CCN(C4CCCC4)C3=O)C2)nc1Nc1ccc(C2CCN(CC3CCN(c4ccc5c(c4)C(=O)N(C4CCC(=O)NC4=O)C5=O)C3)CC2)cc1F (stereo not shown) [Compound 041, 5-(3-(3-cyclopentyl-2-oxoimidazolin-1-yl)piperidin-1-yl)-3-((4-(1-((1-(2-(2,6-dioxopiperidin-3-yl)-1,3-dioxoisoindolin-5-yl)pyrrolidin-3-yl)methyl)piperidin-4-yl)-2-fluorophenyl)amino)pyrazin-2-carboxamide] | < 1 nM |
| NC(=O)c1nnc(N2CCCC(N3CCN(C4CCOCC4)C3=O)C2)nc1Nc1ccc(C2CCN(CC3CCN(c4ccc5c(c4)C(=O)N(C4CCC(=O)NC4=O)C5=O)CC3)CC2)cc1 (stereo not shown) [Compound 063, 5-((4-(1-((1-(2-(2,6-dioxopiperidin-3-yl)-1,3-dioxoisoindol-5-yl)piperidin-4-yl)methyl)piperidin-4-yl)phenyl)amino)-3-(3-(2-oxo-3-(tetrahydro-2H-pyran-4-yl)imidazolin-1-yl)piperidin-1-yl)-1,2,4-triazin-6-carboxamide] | > 1 nM |
| CC1(c2ccc(Nc3nc(N4CCCC(N5CCN(C6CCCC6)C5=O)C4)cnc3C(N)=O)cc2)CCN(CC2CCN(c3ccc4c(c3)C(=O)N(C3CCC(=O)NC3=O)C4=O)C2)CC1 (stereo not shown) [Compound 034, 5-(3-(3-cyclopentyl-2-oxoimidazolin-1-yl)piperidin-1-yl)-3-((4-(1-((1-(2-(2,6-dioxopiperidin-3-yl)-1,3-dioxoisoindolin-5-yl)pyrrolidin-3-yl)methyl)-4-methylpiperidin-4-yl)phenyl)amino)pyrazin-2-carboxamide] | < 1 nM |
| CC1(c2ccc(Nc3nc(N4CCCC(N5CCN(C6COC6)C5=O)C4)cnc3C(N)=O)cc2)CCN(C2CN(c3ccc4c(c3)CN(C3CCC(=O)NC3=O)C4=O)C2)CC1 (stereo not shown) [Compound 014, 3-((4-(1-(1-(2-(2,6-dioxopiperidin-3-yl)-1-oxoisoindol-5-yl)azetidin-3-yl)-4-methylpiperidin-4-yl)phenyl)amino)-5-(3-(3-(oxetan-3-yl)-2-oxoimidazolin-1-yl)piperidin-1-yl)pyrazin-2-carboxamide] | < 1 nM |
| NC(=O)c1nnc(N2CCCC(N3CCN(C(F)(F)F)C3=O)C2)nc1Nc1ccc(C2CCN(CC3CCN(c4ccc5c(c4)C(=O)N(C4CCC(=O)NC4=O)C5=O)CC3)CC2)cc1 (stereo not shown) [Compound 056, 5-((4-(1-((1-(2-(2,6-dioxopiperidin-3-yl)-1,3-dioxoisoindol-5-yl)piperidin-4-yl)methyl)piperidin-4-yl)phenyl)amino)-3-(3-(2-oxo-3-(trifluoromethyl)imidazolin-1-yl)piperidin-1-yl)-1,2,4-triazin-6-carboxamide] | < 1 nM |
| NC(=O)c1nnc(N2CCCC(N3CCN(c4ccccc4F)C3=O)C2)nc1Nc1ccc(C2CCN(CC3CCN(c4ccc5c(c4)C(=O)N(C4CCC(=O)NC4=O)C5=O)CC3)CC2)cc1 (stereo not shown) [Compound 065, 5-((4-(1-((1-(2-(2,6-dioxopiperidin-3-yl)-1,3-dioxoisoindol-5-yl)piperidin-4-yl)methyl)piperidin-4-yl)phenyl)amino)-3-(3-(3-(2-fluorophenyl)-2-oxoimidazolin-1-yl)piperidin-1-yl)-1,2,4-triazin-6-carboxamide] | < 1 nM |
| NC(=O)c1ncc(N2CCCC(N3CCN(C4CCCC4)C3=O)C2)nc1Nc1ccc(N2CCC(C#CCN3CCN(c4ccc5c(c4)C(=O)N(C4CCC(=O)NC4=O)C5=O)CC3)CC2)cc1 (stereo not shown) [Compound 029, 5-(3-(3-cyclopentyl-2-oxoimidazolin-1-yl)piperidin-1-yl)-3-((4-(4-(3-(4-(2-(2,6-dioxopiperidin-3-yl)-1,3-dioxoisoindolin-5-yl)piperazin-1-yl)propan-1-yne-1-yl)piperidin-1-yl)phenyl)amino)pyrazin-2-carboxamide] | < 1 nM |
| CN1CCN(C2CC3CC2N(c2nnc(C(N)=O)c(Nc4ccc(C5CCN(C6CN(c7ccc8c(c7)C(=O)N(C7CCC(=O)NC7=O)C8=O)C6)CC5)cc4)n2)C3)C1=O (stereo not shown) [Compound 049, 5-((4-(1-(1-(2-(2,6-dioxopiperidin-3-yl)-1,3-dioxoisoindolin-5-yl)azetidin-3-yl)piperidin-4-yl)phenyl)amino)-3-(-6-(3-methyl-2-oxoimidazolin-1-yl)-2-azabicyclo[2.2.1]heptan-2-yl)-1,2,4-triazin-6-carboxamide] | < 1 nM |

The remaining lines, values ahead:

| DC50 | Compound |
| --- | --- |
| < 1 nM | CN1CCN(C2CCCN(c3nnc(C(N)=O)c(Nc4ccc(C5CCN(C6CCN(c7ccc8c(c7)C(=O)N(C7CCC(=O)NC7=O)C8=O)CC6)CC5)cc4)n3)C2)C1=O (stereo not shown) [Compound 083, 5-((4-(1′-(2-(2,6-dioxopiperidin-3-yl)-1,3-dioxoisoindol-5-yl)-[1,4′-bipiperidin]-4-yl)phenyl)amino)-3-(3-(3-methyl-2-oxoimidazolin-1-yl)piperidin-1-yl)-1,2,4-triazin-6-carboxamide] |
| < 1 nM | CN1CCN([C@@H]2CCCN(c3nnc(C(N)=O)c(Nc4ccc(N5CCN(CC6CCN(c7ccc(N8CCC(=O)NC8=O)c8c7OCCO8)CC6)CC5)c(F)c4)n3)C2)C1=O [Compound 193, (R)-5-((4-(4-((1-(8-(2,4-dioxotetrahydropyrimidin-1(2H)-yl)-2,3-dihydrobenzo[b][1,4]dioxan-5-yl)piperidin-4-yl)methyl)piperazin-1-yl)-3-fluorophenyl)amino)-3-(3-(3-methyl-2-oxoimidazolidin-1-yl)piperidin-1-yl)-1,2,4-triazin-6-carboxamide] |
| < 1 nM | CN1CCN([C@@H]2CCCN(c3nnc(C(N)=O)c(Nc4ccc(N5CCN(CC#Cc6ccc(C(=O)NC7CCC(=O)NC7=O)s6)CC5)c(F)c4)n3)C2)C1=O (stereo partly drawn) [Compound 230, 5-((4-(4-(3-(5-((2,6-dioxopiperidin-3-yl)carbamoyl)thiophen-2-yl)propan-2-yn-1-yl)piperazin-1-yl)-3-fluorophenyl)amino)-3-((R)-3-(3-methyl-2-oxoimidazolidin-1-yl)piperidin-1-yl)-1,2,4-triazin-6-carboxamide] |
| > 1 nM | CN1CCN(C2CC3CC2N(c2nnc(C(N)=O)c(Nc4ccc(N5CCN(CC6CCN(c7ccc8c(c7)C(=O)N(C7CCC(=O)NC7=O)C8=O)CC6)CC5)cc4)n2)C3)C1=O (stereo not shown) [Compound 108, 5-((4-(4-((1-(2-(2,6-dioxopiperidin-3-yl)-1,3-dioxoisoindol-5-yl)piperidin-4-yl)methyl)piperazin-1-yl)phenyl)amino)-3-(6-(3-methyl-2-oxoimidazolin-1-yl)-2-azabicyclo[2.2.1]heptan-2-yl)-1,2,4-triazin-6-carboxamide] |
| < 1 nM | NC(=O)c1nnc(N2CCCC(N3CCN(c4ccccc4)C3=O)C2)nc1Nc1ccc(C2CCN(CC3CCN(c4ccc5c(c4)C(=O)N(C4CCC(=O)NC4=O)C5=O)C3)CC2)cc1 (stereo not shown) [Compound 089, 5-((4-(1-((1-(2-(2,6-dioxopiperidin-3-yl)-1,3-dioxoisoindol-5-yl)pyrrolidin-3-yl)methyl)piperidin-4-yl)phenyl)amino)-3-(3-(2-oxo-3-phenylimidazolin-1-yl)piperidin-1-yl)-1,2,4-triazin-6-carboxamide] |
| < 1 nM | CN1CCN(C2CC3CC2N(c2nnc(C(N)=O)c(Nc4ccc(C5CCN(CC6CCN(c7ccc8c(c7)C(=O)N(C7CCC(=O)NC7=O)C8)CC6)CC5)cc4)n2)C3)C1=O (stereo not shown) [Compound 112, 5-((4-(1-((1-(2-(2,6-dioxopiperidin-3-yl)-3-oxoisoindol-5-yl)piperidin-4-yl)methyl)piperidin-4-yl)phenyl)amino)-3-(6-(3-methyl-2-oxoimidazolin-1-yl)-2-azabicyclo[2.2.1]heptan-2-yl)-1,2,4-triazin-6-carboxamide] |
| < 1 nM | CN1CCN([C@@H]2CCCN(c3nnc(C(N)=O)c(Nc4ccc(N5CCN(CC6CCN(c7ccc8c(c7)C(=O)N(C7CCC(=O)NC7=O)C8=O)CC6)CC5)c(F)c4F)n3)C2)C1=O (stereo partly drawn) [Compound 165, 5-((4-(4-((1-(2-(2,6-dioxopiperidin-3-yl)-1,3-dioxoisoindolin-5-yl)piperidin-4-yl)methyl)piperazin-1-yl)-2,3-difluorophenyl)amino)-3-((R)-3-(3-methyl-2-oxoimidazolidin-1-yl)piperidin-1-yl)-1,2,4-triazin-6-carboxamide] |
| < 1 nM | CN1CCN(C2CC3CC2N(c2nnc(C(N)=O)c(Nc4ccc(C5CCN(CC6CCN(c7ccc8c(c7)C(=O)N(C7CCC(=O)NC7=O)C8=O)C6)CC5)cc4)n2)C3)C1=O (stereo not shown) [Compound 102, 5-((4-(1-((1-(2-(2,6-dioxopiperidin-3-yl)-1,3-dioxoisoindol-5-yl)pyrrolidin-3-yl)methyl)piperidin-4-yl)phenyl)amino)-3-(6-(3-methyl-2-oxoimidazolin-1-yl)-2-azabicyclo[2.2.1]heptan-2-yl)-1,2,4-triazin-6-carboxamide] |
| < 1 nM | CN1CCN([C@@H]2CCCN(c3nnc(C(N)=O)c(Nc4ccc(N5CCN(CC6CCN(c7ccn8c(C9CCC(=O)NC9=O)cnc8c7)CC6)CC5)c(F)c4)n3)C2)C1=O (stereo partly drawn) [Compound 244, 5-((4-(4-((1-(3-(2,6-dioxopiperidin-3-yl)imidazo[1,2-a]pyridin-7-yl)piperidin-4-yl)methyl)piperazin-1-yl)-3-fluorophenyl)amino)-3-((R)-3-(3-methyl-2-oxoimidazolidin-1-yl)piperidin-1-yl)-1,2,4-triazin-6-carboxamide] |
| > 1 nM | NC(=O)c1nnc(N2CCCC(N3CCN(c4ccccc4)C3=O)C2)nc1Nc1ccc(N2CCC(N3CCN(CC#Cc4ccc5c(c4)CN(C4CCC(=O)NC4=O)C5=O)CC3)CC2)cc1 (stereo not shown) [Compound 097] |
